Laboratory results from publication PMC12790360, “Characterization of Non‐Specific Electrostatic Interactions of Cationic Peptides with DNA Origami and Their Functional Consequences” (Small Methods, 2025).
Read-outs that look alike come from different tables or passages of the source. Ends that are not written are not given here. Peptide text beside a SMILES is read from it.

Tested on: ssDNA
Experiment: Centrifugation-based pull-down (solubility) assay
Format: physicochemical
Procedure: Next, to quantify the propensity of these peptides to induce the aggregation, we developed a centrifugation‐based pull‐down assay (Figure 1e). In this assay, the cationic peptide pulls down the interacting BCN‐free ssDNA, forming large macromolecular aggregates that are sedimented as a pellet. The amount of ssDNA remaining in the soluble supernatant is then determined by measuring its absorbance at 260 nm.^[ [40], [41] ^] […] The soluble fraction for both peptides increased as the NaCl concentration was raised, confirming that the aggregation is driven by electrostatic interactions. […] To determine the soluble fraction of ssDNA after mixing with peptides, the mixtures were prepared as described above and then centrifuged at 16 000 × g for 5 min at room temperature. The supernatants were carefully collected, and the ssDNA concentration was measured by absorbance at 260 nm (OD260) on a NanoDrop spectrophotometer. The soluble fraction was calculated as OD260,supernatant/OD260,initial, where OD260,initial corresponds to the absorbance of the ssDNA reference solution (0.07 mM in 1× TE buffer without peptide or salt).

[1] = BCN-free ssDNA 0.07 mM in 1x TE, tenfold molar excess peptide, varying NaCl, 16 000 x g 5 min room temperature, OD260 supernatant/initial, n = 3

Compound | Soluble ssDNA fraction in supernatant after centrifugation with peptide [1] | Soluble ssDNA fraction in supernatant after centrifugation with peptide
CC[C@H](C)[C@H](NC(=O)[C@H](CCCCN)NC(=O)[C@H](CCC(N)=O)NC(=O)[C@H](CC(N)=O)NC(=O)[C@H](CS)NC(=O)[C@H](C)NC(=O)[C@H](C)NC(=O)CNC(=O)[C@H](CCCNC(=N)N)NC(=O)[C@H](Cc1c[nH]c2ccccc12)NC(=O)CNC(=O)[C@@H]1CCCN1C(=O)[C@H](CCCNC(=N)N)NC(=O)[C@@H](N)CS)C(=O)N[C@@H](CC(C)C)C(=O)O [CP4] (H-CRPGWRGAACNQKIL-OH) | highly soluble across all conditions | 
CC[C@H](C)[C@H](NC(=O)[C@@H](NC(=O)[C@H](CC(C)C)NC(=O)[C@H](CO)NC(=O)[C@H](Cc1c[nH]cn1)NC(=O)[C@@H](NC(=O)[C@@H](NC(=O)CNC(=O)[C@H](Cc1c[nH]cn1)NC(=O)[C@H](CCCNC(=N)N)NC(=O)[C@H](CCCNC(=N)N)NC(=O)[C@H](CCSC)NC(=O)[C@H](CCC(=O)O)NC(=O)[C@H](Cc1ccc(O)cc1)NC(=O)[C@H](CCCCN)NC(=O)[C@H](CC(N)=O)NC(=O)CNC(=O)[C@@H]1CCCN1C(=O)[C@H](CS)NC(=O)[C@H](CC(C)C)NC(=O)[C@H](CCC(=O)O)NC(=O)[C@@H](NC(=O)CNC(=O)[C@H](CCC(=O)O)NC(=O)[C@@H](N)CCCNC(=N)N)C(C)C)[C@@H](C)O)[C@@H](C)O)C(C)C)C(=O)N[C@@H](Cc1c[nH]cn1)C(=O)N[C@@H](CC(=O)O)C(=O)O [NP1] | weaker aggregation tendencies compared with CP1 and CP2 | 
EQLESIINFEKLTEWT [AP2] |  | highly soluble across all conditions
GGGSEEEYRSRKYSSWYVALKR [CP2] | salt‐dependent solubility | 
ISQAVHAAHAEINEAGR [AP3] |  | weaker aggregation tendencies compared with CP1 and CP2
KLTWQELYQLKYKGI [CP6] | weaker aggregation tendencies compared with CP1 and CP2 | 
PKKKR [CP5, brain-derived neurotrophic factor (BDNF) mimic peptide, cyclic, cationic, net charge +3] | weaker aggregation tendencies compared with CP1 and CP2 | 
RGIDKRHWNSQ [CP3] | weaker aggregation tendencies compared with CP1 and CP2 | 
SSSHPIFHRGEFSV [NP5] | weaker aggregation tendencies compared with CP1 and CP2 | 
YRSRKYSSWYVALKR [CP1] | salt‐dependent solubility | 
